# Assay results as given in the supplement of paper PMC6045584.
# ± gives the standard deviation of the averaged measurements.
# Compound: CC[C@@]1(O)C(=O)OCc2c1cc1n(c2=O)Cc2cc3ccccc3nc2-1 [CAMPTOTHECIN]
# Test: surviving fraction relative to DMSO-only wells; higher = less growth inhibition
# Conditions: 50 nM; exposure time: 5 days
# Method in brief: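 In 384-well plates, 250–500 log-phase tumour cells per well were given 24 hours before five days of continuous exposure to inhibitors at 0.5, 1, 5, 10, 50, 100, 500 and 1000 nM. Surviving fraction is luminescence from CellTiter-Glo, normalised to the median of wells containing DMSO alone. Reading took place after 10 minutes at room temperature.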
row,Test System,surviving fraction
1,YAMATO SYNOVIAL,0.0957 ± 0.0085
2,C33A CERVIX,0.126 ± 0.03
3,PCI30 HEADNECK,0.437 ± 0.034
4,SCC003 HEADNECK,0.361 ± 0.052
5,HUO3N1 BONE,0.228 ± 0.016
6,T47D BREAST,0.259 ± 0.013
7,NOS1 BONE,0.636 ± 0.037
8,HELA CERVIX,0.253 ± 0.019
9,NY BONE,0.067 ± 0.0061
10,CASKI CERVIX,0.0697 ± 0.0057
11,BT549 BREAST,0.032 ± 0.004
12,COLO320DM LARGE INTESTINE,0.137 ± 0.003
13,MDAMB361 BREAST,0.774 ± 0.071
14,HOSMNG BONE,0.322 ± 0.035
15,A549 LUNG,0.2 ± 0.0097
16,CAL51 BREAST,0.0468 ± 0.0037
17,OSHN BONE,0.0807 ± 0.0076
18,MCF7 BREAST,0.39 ± 0.0082
19,HT1080 SOFT TISSUE,0.377 ± 0.014
20,MDAMB157 BREAST,0.26 ± 0.0076

row,Test System,surviving fraction
1,143B BONE,0.12 ± 0.005
2,SIHA CERVIX,0.44 ± 0.039
3,MDAMB134 BREAST,0.602 ± 0.0085
4,SG32 HEADNECK,0.25 ± 0.036
5,NCIH441 LUNG,0.201 ± 0.02
6,CCK81 LARGE INTESTINE,0.506 ± 0.051
7,SG31 HEADNECK,0.376 ± 0.021
8,OS25HAL BONE,0.055 ± 0.001
9,HCC1954 BREAST,0.245 ± 0.046
10,VP229 BREAST,0.569 ± 0.037
11,22RV1 PROSTATE,0.162 ± 0.16
12,MDAMB231 BREAST,0.276 ± 0.0089
13,RDES SOFT TISSUE,0.0347 ± 0.0011
14,LM7 BONE,0.145 ± 0.018
15,HMT3552 BREAST,0.224 ± 0.0076
16,SNU475 LIVER,0.162 ± 0.0079
17,HCC38 BREAST,0.0953 ± 0.0049
18,HU09 BONE,0.026 ± 0.0027
19,ASKA SYNOVIAL,0.118 ± 0.005
20,CADOES1 SOFT TISSUE,0.045 ± 0.0044

# Same assay, conditions: 100 nM; exposure time: 5 days
row,Test System,surviving fraction
1,JURKAT HAEMATOPOIETIC AND LYMPHOID TISSUE,0.0247 ± 0.00058
2,SJSA1 BONE,1.11 ± 0.093
3,YAMATO SYNOVIAL,0.247 ± 0.026
4,C33A CERVIX,0.0787 ± 0.0078
5,PCI30 HEADNECK,0.487 ± 0.027
6,SCC003 HEADNECK,0.218 ± 0.029
7,HUO3N1 BONE,0.203 ± 0.025
8,T47D BREAST,0.236 ± 0.0055
9,NOS1 BONE,0.552 ± 0.036
10,HELA CERVIX,0.373 ± 0.02
11,NY BONE,0.0407 ± 0.0015
12,CASKI CERVIX,0.0273 ± 0.00058
13,BT549 BREAST,0.0227 ± 0.00058
14,COLO320DM LARGE INTESTINE,0.263 ± 0.0072
15,MDAMB361 BREAST,0.702 ± 0.032
16,HOSMNG BONE,0.214 ± 0.0082
17,A549 LUNG,0.121 ± 0.002
18,CAL51 BREAST,0.0333 ± 0.0025
19,OSHN BONE,0.0593 ± 0.012
20,MCF7 BREAST,0.354 ± 0.011
21,HT1080 SOFT TISSUE,0.26 ± 0.022

row,Test System,surviving fraction
1,MDAMB157 BREAST,0.247 ± 0.019
2,143B BONE,0.0595 ± 0.0064
3,SIHA CERVIX,0.377 ± 0.0053
4,MDAMB134 BREAST,0.594 ± 0.0057
5,SG32 HEADNECK,0.263 ± 0.037
6,NCIH441 LUNG,0.114 ± 0.016
7,CCK81 LARGE INTESTINE,0.416 ± 0.046
8,SG31 HEADNECK,0.37 ± 0.049
9,OS25HAL BONE,0.0397 ± 0.0093
10,HCC1954 BREAST,0.172 ± 0.011
11,VP229 BREAST,0.348 ± 0.084
12,22RV1 PROSTATE,0.189 ± 0.22
13,MDAMB231 BREAST,0.211 ± 0.007
14,RDES SOFT TISSUE,0.0297 ± 0.0015
15,LM7 BONE,0.0813 ± 0.0095
16,HMT3552 BREAST,0.215 ± 0.0061
17,SNU475 LIVER,0.194 ± 0.012
18,HCC38 BREAST,0.0423 ± 0.009
19,HU09 BONE,0.0207 ± 0.00058
20,ASKA SYNOVIAL,0.21 ± 0.0046
21,CADOES1 SOFT TISSUE,0.0337 ± 0.0064

# Same assay, conditions: 500 nM; exposure time: 5 days
row,Test System,surviving fraction
1,JURKAT HAEMATOPOIETIC AND LYMPHOID TISSUE,0.0203 ± 0.00058
2,SJSA1 BONE,1.14 ± 0.24
3,YAMATO SYNOVIAL,0.16 ± 0.0095
4,C33A CERVIX,0.0317 ± 0.0032
5,PCI30 HEADNECK,0.356 ± 0.015
6,SCC003 HEADNECK,0.07 ± 0.0061
7,HUO3N1 BONE,0.1357 ± 0.0011
8,T47D BREAST,0.157 ± 0.006
9,NOS1 BONE,0.392 ± 0.039
10,HELA CERVIX,0.0667 ± 0.0072
11,NY BONE,0.02 ± 0.0017
12,CASKI CERVIX,0.018
13,BT549 BREAST,0.02
14,COLO320DM LARGE INTESTINE,0.138 ± 0.0052
15,MDAMB361 BREAST,0.397 ± 0.038
16,HOSMNG BONE,0.0427 ± 0.0038
17,A549 LUNG,0.037 ± 0.003
18,CAL51 BREAST,0.0225 ± 0.00087
19,OSHN BONE,0.0367 ± 0.0083
20,MCF7 BREAST,0.0642 ± 0.0025
21,HT1080 SOFT TISSUE,0.0953 ± 0.016

row,Test System,surviving fraction
1,MDAMB157 BREAST,0.135 ± 0.0051
2,143B BONE,0.021
3,SIHA CERVIX,0.099 ± 0.0017
4,MDAMB134 BREAST,0.587 ± 0.13
5,SG32 HEADNECK,0.0417 ± 0.0055
6,NCIH441 LUNG,0.0587 ± 0.0095
7,CCK81 LARGE INTESTINE,0.056 ± 0.007
8,SG31 HEADNECK,0.189 ± 0.017
9,OS25HAL BONE,0.0247 ± 0.0032
10,HCC1954 BREAST,0.0478 ± 0.0088
11,VP229 BREAST,0.0443 ± 0.01
12,22RV1 PROSTATE,0.24 ± 0.28
13,MDAMB231 BREAST,0.0976 ± 0.004
14,RDES SOFT TISSUE,0.0263 ± 0.0011
15,LM7 BONE,0.024 ± 0.0035
16,HMT3552 BREAST,0.0953 ± 0.005
17,SNU475 LIVER,0.103 ± 0.0081
18,HCC38 BREAST,0.038 ± 0.0072
19,HU09 BONE,0.0163 ± 0.00058
20,ASKA SYNOVIAL,0.157 ± 0.0082
21,CADOES1 SOFT TISSUE,0.0317 ± 0.0021

# Same assay, conditions: 1000 nM; exposure time: 5 days
row,Test System,surviving fraction
1,JURKAT HAEMATOPOIETIC AND LYMPHOID TISSUE,0.0253 ± 0.0011
2,SJSA1 BONE,1.18 ± 0.083
3,YAMATO SYNOVIAL,0.284 ± 0.028
4,C33A CERVIX,0.0383 ± 0.016
5,PCI30 HEADNECK,0.264 ± 0.015
6,SCC003 HEADNECK,0.054 ± 0.004
7,HUO3N1 BONE,0.112 ± 0.0079
8,T47D BREAST,0.137 ± 0.0086
9,NOS1 BONE,0.337 ± 0.026
10,HELA CERVIX,0.0348 ± 0.0013
11,NY BONE,0.0217 ± 0.0021
12,CASKI CERVIX,0.0217 ± 0.0011
13,BT549 BREAST,0.023 ± 0.002
14,COLO320DM LARGE INTESTINE,0.127 ± 0.0051
15,MDAMB361 BREAST,0.38 ± 0.041
16,HOSMNG BONE,0.0287 ± 0.0015
17,A549 LUNG,0.026 ± 0.001
18,CAL51 BREAST,0.0242 ± 0.0021
19,OSHN BONE,0.034 ± 0.0044
20,MCF7 BREAST,0.0648 ± 0.0052
21,HT1080 SOFT TISSUE,0.0837 ± 0.0075

row,Test System,surviving fraction
1,MDAMB157 BREAST,0.118 ± 0.014
2,143B BONE,0.0245 ± 0.00071
3,SIHA CERVIX,0.0593 ± 0.0023
4,MDAMB134 BREAST,0.518 ± 0.044
5,SG32 HEADNECK,0.026 ± 0.002
6,NCIH441 LUNG,0.044 ± 0.003
7,CCK81 LARGE INTESTINE,0.0267 ± 0.0049
8,SG31 HEADNECK,0.133 ± 0.018
9,OS25HAL BONE,0.037 ± 0.0069
10,HCC1954 BREAST,0.0365 ± 0.0021
11,VP229 BREAST,0.0333 ± 0.0031
12,22RV1 PROSTATE,0.24 ± 0.28
13,MDAMB231 BREAST,0.0968 ± 0.0048
14,RDES SOFT TISSUE,0.0357 ± 0.0011
15,LM7 BONE,0.0243 ± 0.00058
16,HMT3552 BREAST,0.0647 ± 0.0081
17,SNU475 LIVER,0.104 ± 0.0085
18,HCC38 BREAST,0.0387 ± 0.0025
19,HU09 BONE,0.0203 ± 0.0011
20,ASKA SYNOVIAL,0.231 ± 0.0075
21,CADOES1 SOFT TISSUE,0.0297 ± 0.0015
